The values that follow come from US11571484B2, “Compositions that target tumor-associated macrophages and methods of use therefor” (Sanford Burnham Prebys Medical Discovery Institute, priority 2017, dated 2023).

Ends that are not written are not given here.

The test system of one assay is peritoneal macrophages. Put plainly: In vivo phage display on peritoneal cells of 4T1 tumor-bearing versus normal mice. Also on record: species or system mouse. As to conditions: phage-displayed peptide, peritoneal cells of 4T1 tumor mice. Here is the method:
A, Naive phage library was injected intraperitoneally in 4T1 tumor-bearing mice and age-matched normal mice, and allowed to circulate for two h. Peritoneal cells were collected, the accompanying phages were rescued and the peptide-encoding segment of phage DNA was sequenced. […] Peritoneal cells were extracted from the mice, seeded on coverslips, allowed to attach for 2 h, fixed, permeabilized, and stained for CD206. CD206+ cells were counted from 6 different confocal images, 2 from each mouse. C, Highly repeated sequences obtained from the first round of the biopanning experiment shown schematically in panel A. D, Frequency of phage clones encoding UNO or a randomly picked peptide (CIGVSSDC) divided by the total number of repeated sequences) in the 4T1 tumor-bearing and normal mice.
Ten days later, the 4T1 mouse and a Balb/c female mouse of the matched age, were injected with 500 μL of a 7×10^10 pfu/mL of purified CX7C long-circulating library that bears a mutation on the p17 protein of tail fiber^45. After 2 h the mice were anesthetized and peritoneal cells were collected, washed by centrifugation, and lysed by hand-held homogenizer in 2 mL of LB+NP40 1%. The phage was amplified in E. coli strain BLT5403 for high throughput sequencing of peptide encoding segment of the phage genomic DNA using Ion Torrent semiconductor sequencing system.
In vivo phage display was carried out on orthotopic breast cancer bearing mice as outlined in FIG. 1A. Compared to peritoneal cells of healthy mice, […] macrophages were ˜5-fold overrepresented in Balb/c mice bearing metastatic syngeneic 4T1 breast tumors (FIG. 1B). We hypothesized that a peptide that binds to peritoneal macrophages in tumor-bearing mice may also target M2-like TAMs. Mice with 4T1 tumors were injected intraperitoneally (i.p.) with a phage library expressing 9-amino acid cyclic CX7C peptides. After 2 h, peritoneal cells were collected, bound phages were rescued by amplification, and the resulting phage pool was subjected to high-throughput sequencing of the peptide-encoding segment of the phage genome. […]

For assay [1], the target named is T1, recombinant mouse macrophage mannose receptor rmMMR/CD206 (Mus musculus, UniProt Q61830).
T1 construct: purchased R&D Systems 2535-MM-050
T1 sequence (Q61830 20-1456): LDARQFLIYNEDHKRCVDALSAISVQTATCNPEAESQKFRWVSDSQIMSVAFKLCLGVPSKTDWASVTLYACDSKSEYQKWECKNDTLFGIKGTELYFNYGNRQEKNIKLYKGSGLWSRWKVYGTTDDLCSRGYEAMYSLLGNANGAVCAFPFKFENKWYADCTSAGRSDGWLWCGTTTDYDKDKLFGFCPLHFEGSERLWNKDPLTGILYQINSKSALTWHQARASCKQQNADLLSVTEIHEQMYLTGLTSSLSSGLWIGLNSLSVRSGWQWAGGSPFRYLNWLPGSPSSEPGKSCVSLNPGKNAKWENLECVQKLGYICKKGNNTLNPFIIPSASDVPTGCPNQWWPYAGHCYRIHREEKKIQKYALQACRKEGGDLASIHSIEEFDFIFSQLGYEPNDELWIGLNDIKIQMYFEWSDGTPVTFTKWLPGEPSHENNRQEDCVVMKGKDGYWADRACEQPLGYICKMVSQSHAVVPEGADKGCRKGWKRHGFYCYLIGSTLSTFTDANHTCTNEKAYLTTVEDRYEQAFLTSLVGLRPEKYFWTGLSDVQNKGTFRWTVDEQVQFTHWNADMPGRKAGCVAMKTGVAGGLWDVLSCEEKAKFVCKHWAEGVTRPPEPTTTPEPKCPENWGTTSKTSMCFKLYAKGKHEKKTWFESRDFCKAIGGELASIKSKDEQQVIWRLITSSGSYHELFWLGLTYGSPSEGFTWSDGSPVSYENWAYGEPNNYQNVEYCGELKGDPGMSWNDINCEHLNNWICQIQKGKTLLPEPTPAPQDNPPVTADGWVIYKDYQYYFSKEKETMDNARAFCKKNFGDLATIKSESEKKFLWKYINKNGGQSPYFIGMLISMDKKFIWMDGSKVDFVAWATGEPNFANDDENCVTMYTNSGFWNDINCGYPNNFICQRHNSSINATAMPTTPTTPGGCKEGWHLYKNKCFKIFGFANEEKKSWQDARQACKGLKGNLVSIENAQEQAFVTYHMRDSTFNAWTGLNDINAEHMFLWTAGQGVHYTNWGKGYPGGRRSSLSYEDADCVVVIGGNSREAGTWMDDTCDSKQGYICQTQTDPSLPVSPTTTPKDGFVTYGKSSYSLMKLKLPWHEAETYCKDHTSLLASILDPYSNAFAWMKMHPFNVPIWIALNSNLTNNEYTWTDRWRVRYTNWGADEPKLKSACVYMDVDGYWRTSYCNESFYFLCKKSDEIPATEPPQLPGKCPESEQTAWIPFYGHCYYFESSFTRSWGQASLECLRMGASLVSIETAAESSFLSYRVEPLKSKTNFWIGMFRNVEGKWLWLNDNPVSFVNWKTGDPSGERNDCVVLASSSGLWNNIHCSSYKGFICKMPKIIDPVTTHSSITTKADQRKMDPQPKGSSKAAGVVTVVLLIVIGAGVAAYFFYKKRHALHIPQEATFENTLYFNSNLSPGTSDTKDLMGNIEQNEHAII
Description: Fluorescence anisotropy assay with mouse recombinant CD206. As to conditions: 50 nM FAM peptide, 1 μM protein, 25 °C. Type of assay: binding. As for the experimental part:
The stocks of fluorescent ligands (FAM-UNO, FAM-CSPGAK and FAM-CPMTDNE) in mQ water were stored at −20° C. […], 150 mM NaCl, 1 mM CaCl2, 0.1% Pluronic F-127, pH 7.4) on the day of experiment. The concentration of fluorescent ligands was determined by absorbance of FAM (E495=75000 M^−1 cm^−1).
The recombinant mouse macrophage mannose receptor rmMMR/CD206 (R&D Systems, catalog number: 2535-MM-050) and recombinant mouse CD163 (R&D Systems, catalog number: 7435-CD-050) were reconstituted at 1 mg/ml in IB, aliquoted and stored at −20° C. To generate linearized version of cyclic FAM-UNO peptide, the peptide at 1 mM concentration was preincubated for 24 h at room temperature in a dark place with 3 mM DTT and diluted with IB 2×10^5 times before the FA assay. The control experiment with FAM-CPMTDNE peptide (FIG. 22) was performed to rule out the possibility of disulphide bond formation, which could affect the binding properties of linear peptides. Initially, the peptide was preincubated in DMSO for 4 days at room temperature to enhance the disulphide bond formation, and then diluted in IB buffer with 3 mM DTT, and the disappearance of preformed dimer was observed as a change in FA signal.
In all experiments, FA signal measurements were done under pseudo first-order conditions with 50 nM singly labelled FAM peptides and 1 μM proteins. […] Assays were carried out in kinetic mode in a total volume of 30 μl at 25° C. on the PHERAstar (BMG Labtech, Germany) microplate reader using an optical module with excitation and emission filters of 485 nm (slit 10 nm) and 520 nm (slit 10 nm), respectively. Dual emission detection mode allows simultaneous recording of intensities that are parallel (l) and perpendicular (1) to the plane of excitation light. […] The background fluorescence (receptor and buffer components in the absence of fluorescent ligand) was subtracted independently from all intensity channels. FA signals at time t after initiation of binding reaction was calculated as parameters r(t) from the equation: […]

For assay [2], the system named is peritoneal cells (CCR2+ macrophages) of 4T1 tumor-bearing mice. Put plainly: Flow cytometry of FAM-peptide binding to peritoneal cells from 4T1 tumor mice. It counts as cell-based, mouse. As to conditions: anti-CD206 10 μg/mL. Here is the method: A, Change in fluorescence anisotropy of FAM-UNO (dotted line) and FAM-UNO in DTT (solid line) while incubating with mouse recombinant CD206. B, Change in fluorescence anisotropy of FAM-CSPGAK with mouse recombinant CD206 (solid line) or with CD163 (dotted line) and of FAM-CPMTDNE (control) with CD206 (dashed line). C, FAM-UNO binds selectively to CCR2^+ macrophages collected from the peritoneal cavity of 4T1 tumor-bearing mice, as 94.3% of FAM^+ cells are CCR2^+ cells. The analysis was done gating for the FAM^+ population (left panel). In these 4T1 tumor bearing mice, 58% of peritoneal cells are macrophages, i.e. CCR2^+ cells (right panel). D, FAM-UNO binding to peritoneal cells is inhibited by preincubating with 10 µg/mL of anti-CD206, whereas the preincubation with anti CD206 antibody had no effect on FAM-LyP-1 binding. In panels A and D are shown representative graphs from three independent experiments. In panels c and d are shown results from three independent experiments (n=3 mice) and bars of panel D represents mean+SEM.
Peritoneal cells were extracted from Balb/c mice 2 weeks after inoculation of 10^6 cells orthotopically). Mice were anesthetized and intraperitoneally injected with 5 mL of PBS+1% BSA, the abdomen was massaged to detach macrophages and the peritoneal fluid was collected. This procedure typically yielded 5-9×10^6 cells. Cells were concentrated to 1 mL in the same peritoneal fluid. For FAM-peptide incubation, the peptides were incubated for 30 minutes at 4° C. For antibody incubation the cells were incubated with antibody for 1 h at 4° C. A647 Rat anti-CCR2 (Biolegend, CA, USA. Catalog number 150603) was incubated for 1 h at 4° C. at a dilution of 1/200. FAM-peptides were incubated at a concentration of 0.5 μg/mL, and Rat anti-CD206 (Bio-Rad, CA, USA. Product code MCA2235GA) was incubated at a concentration of 10 μg/mL. Binding of FAM-peptides was monitored with 488 nm channel and CCR2 labeling was assessed in the 647 nm channel using A647 Anti-CCR2 (Biolegend, CA, USA). After incubation of FAM-Peptides or antibodies, the cells were washed 3 times at 4° C. with PBS-Tby centrifugation at 250 g for 6 minutes, followed by flow cytometry analysis (Accuri, BD Biosciences, CA, USA).

Take “CGEKRTRGC [phage clone previously identified together with LyP-1]”: in the assay with peritoneal macrophages, the “representation among sequenced phage clones” value was “second most abundant phage clone overrepresented in the cancer mice”.

In the case of “FAM-CPMTDNE: FAM-labeled control peptide CPMTDNE (SEQ ID NO: 7) (not fully specified; FAM label) [reference compound]”, the “change in fluorescence anisotropy (interaction) with mouse recombinant CD206” value in assay [1] was “did not cause significant changes in anisotropy values”.

On to “FAM-LyP-1: FAM-labeled LyP-1 (CGNKRTRGC; SEQ ID NO: 4), peptide that targets cell surface p32 (not fully specified (N-terminus); cysteine pairing not given here) [reference compound]”, for which the “reduction of binding to peritoneal cells by pre-incubation with anti-CD206 antibody” value in assay [2] was “no effect”.
